We go through 17 compounds from the NIST ThermoML archive (doi:10.1021/je700640r).

Numbers after ± are expanded uncertainties.

The series is described as follows: activity coefficient (dimensionless); of the first substance listed, at infinite dilution; xn = mol fraction of the nth substance listed. The following applies: Liquid, Chromatography, x1 = 0.

Consider `C1COCCO1` [1,4-dioxane] + CCC[n+]1ccn(C)c1C.F[B-](F)(F)F, for which the activity coefficient was 2.96 ± 0.26 (303.15 K); 3.08 ± 0.27 (313.15 K); 3.14 ± 0.27 (323.15 K); 3.17 ± 0.27 (333.15 K); 3.24 ± 0.28 (343.15 K); 3.29 ± 0.28 (353.15 K). Further, under “363.15 K”, the activity coefficient came out at 3.35 ± 0.29.
As for `CC(C)CO` [2-methyl-1-propanol] + CCC[n+]1ccn(C)c1C.F[B-](F)(F)F, the activity coefficient is, setting by setting: (303.15 K) 4.17 ± 0.36; (313.15 K) 3.87 ± 0.33; (323.15 K) 3.47 ± 0.3; (333.15 K) 3.07 ± 0.26; (343.15 K) 2.62 ± 0.23; (353.15 K) 2.38 ± 0.2. Moreover, the activity coefficient (363.15 K) was found to be 2.03 ± 0.17.
Consider `CC(C)CCO` [3-methylbutan-1-ol] + CCC[n+]1ccn(C)c1C.F[B-](F)(F)F, for which the activity coefficient was 4.91 ± 0.42 (313.15 K); 4.46 ± 0.39 (323.15 K); 4.18 ± 0.36 (333.15 K); 3.78 ± 0.33 (343.15 K); 3.42 ± 0.29 (353.15 K); 3.02 ± 0.26 (363.15 K).
For `CC(C)=O` [acetone] + CCC[n+]1ccn(C)c1C.F[B-](F)(F)F, the activity coefficient (303.15 K) stood at 2.47 ± 0.21; the activity coefficient (313.15 K) is 2.53 ± 0.22; the activity coefficient (323.15 K) was determined as 2.55 ± 0.22; the activity coefficient (333.15 K) came out at 2.61 ± 0.23; the activity coefficient (343.15 K) amounted to 2.66 ± 0.23; the activity coefficient (353.15 K) came out at 2.71 ± 0.23. Where the note is “363.15 K”, the activity coefficient was determined as 2.74 ± 0.24.
As to `CC#N` [acetonitrile] + CCC[n+]1ccn(C)c1C.F[B-](F)(F)F, the activity coefficient was found to be 1.4 ± 0.12 (303.15 K); 1.39 ± 0.12 (313.15 K); 1.38 ± 0.12 (323.15 K); 1.37 ± 0.12 (333.15 K); 1.36 ± 0.11 (343.15 K); 1.35 ± 0.11 (353.15 K). Moreover, the activity coefficient (363.15 K) was determined as 1.34 ± 0.11.
As to `CCCCO` [butan-1-ol] + CCC[n+]1ccn(C)c1C.F[B-](F)(F)F, the activity coefficient (303.15 K) stood at 5.05 ± 0.44; the activity coefficient (313.15 K) is 4.67 ± 0.4; the activity coefficient (323.15 K) came out at 4.2 ± 0.36; the activity coefficient (333.15 K) was 3.73 ± 0.32; the activity coefficient (343.15 K) is 3.2 ± 0.28; the activity coefficient (353.15 K) amounted to 2.67 ± 0.23. Besides, the activity coefficient (363.15 K) was 2.27 ± 0.2.
Regarding `CCC(C)O` (configuration not stated) [butan-2-ol] + CCC[n+]1ccn(C)c1C.F[B-](F)(F)F, the activity coefficient (303.15 K) was 4.28 ± 0.37; the activity coefficient (313.15 K) was found to be 3.99 ± 0.34; the activity coefficient (323.15 K) is 3.67 ± 0.32; the activity coefficient (333.15 K) was 3.3 ± 0.28; the activity coefficient (343.15 K) is 2.87 ± 0.25; the activity coefficient (353.15 K) is 2.5 ± 0.22. Further, the activity coefficient (363.15 K) worked out at 2.13 ± 0.18.
With `ClCCl` [dichloromethane] + CCC[n+]1ccn(C)c1C.F[B-](F)(F)F, the activity coefficient came to 1.67 ± 0.14 (303.15 K); 1.74 ± 0.15 (313.15 K); 1.84 ± 0.16 (323.15 K); 1.93 ± 0.17 (333.15 K); 2.01 ± 0.17 (343.15 K); 2.09 ± 0.18 (353.15 K). Besides, the activity coefficient (363.15 K) came to 2.17 ± 0.19.
For the compound `CCO` [ethanol] + CCC[n+]1ccn(C)c1C.F[B-](F)(F)F, the activity coefficient reads like this: (303.15 K) 1.86 ± 0.16; (313.15 K) 1.68 ± 0.14; (323.15 K) 1.6 ± 0.14; (333.15 K) 1.51 ± 0.13; (343.15 K) 1.44 ± 0.12; (353.15 K) 1.35 ± 0.11. Moreover, the activity coefficient (363.15 K) was determined as 1.18 ± 0.098.
Turning to `CCOC(C)=O` [ethyl acetate] + CCC[n+]1ccn(C)c1C.F[B-](F)(F)F, the activity coefficient is 8.86 ± 0.77 (303.15 K); 8.84 ± 0.76 (313.15 K); 8.79 ± 0.76 (323.15 K); 8.75 ± 0.76 (333.15 K); 8.71 ± 0.75 (343.15 K); 8.66 ± 0.75 (353.15 K). The activity coefficient (363.15 K) amounted to 8.63 ± 0.74.
On to `CO` [methanol] + CCC[n+]1ccn(C)c1C.F[B-](F)(F)F, for which the activity coefficient runs as follows: (303.15 K) 0.898 ± 0.074; (313.15 K) 0.869 ± 0.072; (323.15 K) 0.823 ± 0.069; (333.15 K) 0.777 ± 0.065; (343.15 K) 0.713 ± 0.061; (353.15 K) 0.684 ± 0.059. For the same compound, for the setting “363.15 K”, the activity coefficient was found to be 0.642 ± 0.056.
For the compound `CCCCCO` [pentan-1-ol] + CCC[n+]1ccn(C)c1C.F[B-](F)(F)F, the activity coefficient runs as follows: (313.15 K) 6.2 ± 0.54; (323.15 K) 5.31 ± 0.46; (333.15 K) 4.65 ± 0.4; (343.15 K) 4.05 ± 0.35; (353.15 K) 3.68 ± 0.32; (363.15 K) 3.12 ± 0.27.
For the compound `CCCO` [propan-1-ol] + CCC[n+]1ccn(C)c1C.F[B-](F)(F)F, the activity coefficient (303.15 K) is 3.26 ± 0.28; the activity coefficient (313.15 K) is 3.01 ± 0.26; the activity coefficient (323.15 K) was 2.81 ± 0.24; the activity coefficient (333.15 K) was 2.59 ± 0.22; the activity coefficient (343.15 K) was found to be 2.37 ± 0.2; the activity coefficient (353.15 K) is 2.19 ± 0.19. Further, the activity coefficient (363.15 K) was found to be 1.88 ± 0.16.
In the case of `CC(C)O` [propan-2-ol] + CCC[n+]1ccn(C)c1C.F[B-](F)(F)F, the activity coefficient by setting is: (303.15 K) 2.62 ± 0.23; (313.15 K) 2.53 ± 0.22; (323.15 K) 2.45 ± 0.21; (333.15 K) 2.33 ± 0.2; (343.15 K) 2.21 ± 0.19; (353.15 K) 2.04 ± 0.18. Moreover, where the note is “363.15 K”, the activity coefficient came out at 1.86 ± 0.16.
Regarding `ClC(Cl)(Cl)Cl` [tetrachloromethane] + CCC[n+]1ccn(C)c1C.F[B-](F)(F)F, the activity coefficient (303.15 K) was 8.11 ± 0.7; the activity coefficient (313.15 K) was 8.63 ± 0.74; the activity coefficient (323.15 K) was determined as 9.13 ± 0.79; the activity coefficient (333.15 K) was 9.58 ± 0.83; the activity coefficient (343.15 K) was determined as 10 ± 0.86; the activity coefficient (353.15 K) turned out to be 10.4 ± 0.9. For the setting “363.15 K”, the activity coefficient is 10.7 ± 0.92.
On to `C1CCOC1` [tetrahydrofuran] + CCC[n+]1ccn(C)c1C.F[B-](F)(F)F, for which the activity coefficient runs as follows: (303.15 K) 6.03 ± 0.52; (313.15 K) 5.98 ± 0.52; (323.15 K) 5.95 ± 0.51; (333.15 K) 5.92 ± 0.51; (343.15 K) 5.88 ± 0.51; (353.15 K) 5.82 ± 0.5. The activity coefficient (363.15 K) was determined as 5.78 ± 0.5.
For the compound `ClC(Cl)Cl` [trichloromethane] + CCC[n+]1ccn(C)c1C.F[B-](F)(F)F, the activity coefficient is, setting by setting: (303.15 K) 1.14 ± 0.094; (313.15 K) 1.29 ± 0.11; (323.15 K) 1.4 ± 0.12; (333.15 K) 1.52 ± 0.13; (343.15 K) 1.65 ± 0.14; (353.15 K) 1.78 ± 0.15. Also, the activity coefficient (363.15 K) amounted to 1.91 ± 0.16.
